Laboratory results as given in PubChem BioAssay (NCI).
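Interpolation was linear, between the two tested concentrations surrounding the appropriate level; five concentrations were tested over 48 hours in 96-well plates. The concentration for 50% growth inhibition is given as GI50. TGI: total growth inhibition.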

Experiments:
Experiment in all cases: NCI-60 cell line screen, 48 h
SN12C renal = test system: SN12C renal
OVCAR-3 ovarian = test system: OVCAR-3 ovarian
RPMI-8226 leukemia = test system: RPMI-8226 leukemia
HOP-92 NSCLC = test system: HOP-92 NSCLC
MOLT-4 leukemia = test system: MOLT-4 leukemia
BT-549 breast = test system: BT-549 breast
MDA-MB-231 breast = test system: MDA-MB-231 breast
PC-3 prostate = test system: PC-3 prostate
DU-145 prostate = test system: DU-145 prostate
HS 578T breast = test system: HS 578T breast

| Compound | TGI (SN12C renal) | TGI (OVCAR-3 ovarian) | TGI (RPMI-8226 leukemia) | TGI (HOP-92 NSCLC) | TGI (MOLT-4 leukemia) | GI50 (SN12C renal) | GI50 (RPMI-8226 leukemia) | GI50 (BT-549 breast) | TGI (BT-549 breast) | GI50 (OVCAR-3 ovarian) | GI50 (MDA-MB-231 breast) | TGI (MDA-MB-231 breast) | GI50 (HOP-92 NSCLC) | GI50 (PC-3 prostate) | TGI (PC-3 prostate) | GI50 (MOLT-4 leukemia) | GI50 (DU-145 prostate) | TGI (DU-145 prostate) | GI50 (HS 578T breast) | TGI (HS 578T breast) |
| --- | --- | --- | --- | --- | --- | --- | --- | --- | --- | --- | --- | --- | --- | --- | --- | --- | --- | --- | --- | --- |
| CC(C)(C)C(=O)C(c1ccc(-c2cscn2)cc1)c1ccc(-c2cscn2)cc1 | > 100 µM | > 84.7 µM | > 100 µM | 30 µM | > 100 µM | – | – | – | – | – | – | – | – | – | – | – | – | – | – | – |
| O=C(c1ccc(NCN2C(=O)CCC2=O)cc1)c1ccc(NCN2C(=O)CCC2=O)cc1 | > 100 µM | > 100 µM | 43.9 µM | > 100 µM | > 100 µM | – | – | – | – | – | – | – | – | – | – | – | – | – | – | – |
| O=C(N/N=C/c1cc(Br)cc(Br)c1[O-])c1ccccc1O.O=C(N/N=C/c1cc(Br)cc(Br)c1[O-])c1ccccc1O.[Mn+2] | 16.5 µM | 1.66 µM | 14.8 µM | 14.9 µM | 7.94 µM | 1.56 µM | 1.03 µM | – | – | – | – | – | – | – | – | – | – | – | – | – |
| O[C@]12CCCC[C@H]1CCC2 | > 100 µM | > 100 µM | > 100 µM | > 100 µM | > 100 µM | – | – | – | – | – | – | – | – | – | – | – | – | – | – | – |
| Clc1cc(Cl)cc(N2N=C(c3cccc(Nc4ccncc4)c3)CC2c2ccc(Br)cc2)c1 (stereo unspecified) | 3.11 µM | 3.21 µM | – | 2.94 µM | 4.44 µM | 1.67 µM | – | 1.94 µM | 3.72 µM | 1.72 µM | 1.51 µM | 2.91 µM | 1.48 µM | 1.66 µM | 3.31 µM | 1.95 µM | 1.84 µM | 3.41 µM | – | – |
| CC(=O)O[C@@H]1CC(C)C2CC2C2=C(C(O)OC2O)[C@@H]1C(C)CCC=C(C)C (stereo partly specified) | 35.9 µM | – | 59.1 µM | 35.5 µM | 54.5 µM | – | – | – | – | – | – | – | – | – | – | – | – | – | – | – |
| O=C1NC2(O)c3ccccc3C(=O)C2(O)N1c1ccccc1 (stereo unspecified) | – | > 100 µM | > 100 µM | > 100 µM | > 100 µM | – | – | – | – | – | – | – | – | – | – | – | – | – | – | – |
| O=C(O)c1ccc(NS(=O)(=O)c2cccc3cccnc23)cc1 | > 100 µM | > 100 µM | > 100 µM | – | > 100 µM | > 100 µM | > 100 µM | > 100 µM | > 100 µM | > 100 µM | > 100 µM | > 100 µM | – | > 100 µM | > 100 µM | > 100 µM | > 100 µM | > 100 µM | > 100 µM | > 100 µM |
| CC(=S)NNC(=O)c1ccncc1 | > 100 µM | > 100 µM | – | > 100 µM | > 100 µM | – | – | – | – | – | – | – | – | – | – | – | – | – | – | – |
| CN(C)CCCn1c2c3ccccc3ccc2c2oc(=O)c3ccccc3c21 | – | 9.22 µM | 14 µM | 45.7 µM | 5.19 µM | – | – | – | > 57.8 µM | – | – | – | – | – | – | – | – | – | – | > 65.6 µM |
| Cc1ccc2c(=O)[nH]sc2c1 | 22.7 µM | 43.5 µM | 45.1 µM | – | 23.8 µM | – | – | – | 30 µM | – | – | 31.2 µM | – | – | 29.1 µM | – | – | > 100 µM | – | 40 µM |
| Cc1cc2c(c(C#N)c1C)NC(=O)C(CC(=O)O)C2=O (stereo unspecified) | > 100 µM | > 100 µM | > 100 µM | > 100 µM | > 100 µM | – | – | – | – | – | – | – | – | – | – | – | – | – | – | – |
| COc1cc2c(cc1OC)[C@@H](C(O)c1ccccc1)NCC2 (stereo partly specified) | > 100 µM | > 100 µM | – | > 100 µM | > 100 µM | – | – | – | – | – | – | – | – | – | – | – | – | – | – | – |
| COC1=C(C(=O)OC(C)(C)C)[C@]2(C)C(C(=O)OC(C)(C)C)C(OC)=C(C(=O)OC(C)(C)C)[C@]2(C)C1C(=O)OC(C)(C)C (stereo partly specified) | > 100 µM | > 100 µM | > 100 µM | > 100 µM | > 100 µM | – | – | – | – | – | – | – | – | – | – | – | – | – | – | – |
| N#CC(C#N)=CN1CCN(C(=O)c2ccccc2)C1=S | 65.8 µM | > 100 µM | > 100 µM | > 100 µM | > 100 µM | 24.6 µM | 35.3 µM | 22.8 µM | 53 µM | 36.4 µM | 36.1 µM | > 100 µM | 56.8 µM | 60 µM | > 100 µM | 39.2 µM | 24.4 µM | 85.9 µM | – | – |
| Cl.Fc1c[c-]c(-c2ccccn2)c(F)c1.[Pt].c1ccc([PH+](CC[PH+](c2ccccc2)c2ccccc2)c2ccccc2)cc1 | – | 0.414 µM | 0.249 µM | 0.422 µM | 1.29 µM | – | 0.0341 µM | 0.0867 µM | 0.978 µM | 0.0827 µM | 0.178 µM | 0.496 µM | 0.121 µM | 0.0514 µM | 1.09 µM | 0.291 µM | 0.0656 µM | 1.2 µM | – | – |
| CC(=O)OC[C@@H]1[C@H]2CC(=O)O[C@H]2C[C@H]1OC(C)=O | > 100 µM | > 100 µM | > 100 µM | > 100 µM | > 100 µM | – | – | – | – | – | – | – | – | – | – | – | – | – | – | – |
| COc1ccc(C=NC23CC4CC(CC(C4)C2)C3)cc1 | > 100 µM | > 100 µM | > 100 µM | – | > 100 µM | – | – | – | – | – | – | – | – | – | – | – | – | – | – | – |
| COc1ccc(C(=O)/C=C/c2cc(C(=O)c3cc(OC)c(OC)c(OC)c3)ccc2OC)cc1 | – | – | – | 58.9 µM | – | – | – | 2.85 µM | > 100 µM | – | 3.69 µM | > 100 µM | 5.81 µM | – | – | – | – | – | 4.3 µM | > 100 µM |
| O=C(Nc1nccs1)c1cc(C2=CC=CC([N+](=O)[O-])C=C2)nc(=S)[nH]1 (stereo unspecified) | > 100 µM | > 100 µM | > 100 µM | > 100 µM | > 100 µM | – | – | – | – | – | – | – | – | – | – | – | – | – | – | – |
| COC1CC(OS(=O)(=O)c2ccc(C)cc2)C(OS(=O)(=O)c2ccc(C)cc2)C(COS(=O)(=O)c2ccc(C)cc2)O1 (stereo unspecified) | 20.8 µM | 5.62 µM | 86 µM | – | > 100 µM | – | – | – | – | – | – | – | – | – | – | – | – | – | – | – |
| C=CCN=C1N=C(CC(=O)OCC)CS1 | > 100 µM | > 100 µM | – | > 100 µM | – | – | – | – | – | – | – | – | – | – | – | – | – | – | – | – |
| CCOC(=O)NC(=O)c1cn(CCCOC(=O)CCCCCCCCC(=O)OCCCn2cc(C(=O)NC(=O)OCC)c(=O)[nH]c2=O)c(=O)[nH]c1=O | > 100 µM | 34.8 µM | 38.3 µM | – | 95.9 µM | – | – | – | – | – | – | – | – | – | – | – | – | – | – | – |
| Cc1nc(Nc2ccc(F)c(Cl)c2)sc1C(=O)O | 3.56 µM | 4.47 µM | 6.22 µM | 2.74 µM | – | 1.53 µM | 2.16 µM | 1.7 µM | 4.28 µM | 1.82 µM | – | – | 0.877 µM | 1.75 µM | 4.8 µM | – | 2.22 µM | 7.84 µM | 1.87 µM | 5.44 µM |
| NC1CCC[C@@H](O)[C@H]1O (stereo partly specified) | > 100 µM | > 100 µM | > 100 µM | – | – | – | – | – | > 100 µM | – | – | > 100 µM | – | – | > 100 µM | – | – | > 100 µM | – | > 100 µM |
| N#CC1(c2nc3ccccc3o2)C(=O)C(=O)N(c2ccc(Cl)c(Cl)c2)C(=O)C1=O | > 100 µM | > 100 µM | > 100 µM | > 100 µM | > 100 µM | – | – | – | – | – | – | – | – | – | – | – | – | – | – | – |
| CC[O-].CC[O-].O=Nc1ccc2cc([O-])ccc2c1.O=Nc1ccc2cc([O-])ccc2c1.[Ti+4] | 3.16 µM | 3.82 µM | 4.6 µM | 6.1 µM | – | 1.74 µM | 1.51 µM | – | – | 1.44 µM | – | – | 1.96 µM | – | – | – | – | – | – | – |
